Assay results taken from US20060074243A1, “Hydroxamic acid and amide compounds and their use as protease inhibitors” (Pharmacia Corporation, priority 2002, published 2006).

Columns and labels:
Assay in all cases: In vitro MMP inhibition analysis (fluorogenic peptide substrate cleavage), Ki
Type in all cases: biochemical
[1] = target: T1, Human recombinant MMP-13 (Homo sapiens, UniProt P45452)
T1 construct: made in house; host or cells: baculovirus / insect cells
Procedure: (§1) Several compounds and salts were analyzed in an in vitro assay to determine their ability to inhibit the MMP cleavage of peptide substrates. Inhibition constant (Ki) were calculated from the assayed compound-MMP interactions.
(§2) Human recombinant MMP-1, MMP-2, MMP-9, MMP-13, and MMP-14 were used in this assay. All enzymes were prepared in Assignee's laboratories following usual laboratory procedures. Protocols for the preparation and use of these enzymes are available in the scientific literature. See, e.g., Enzyme Nomenclature (Academic Press, San Diego, Calif., 1992) (and the citations therein). See also, Frije et al., J. Biol. Chem., 26(24), 16766-73 (1994).
The MMP-13 was obtained as a proenzyme from a full-length cDNA clone using baculovirus, as described by V. A. Luckow, “Insect Cell Expression Technology,” Protein Engineering: Principles and Practice, pp. 183-218 (edited by J. L. Cleland et al., Wiley-Liss, Inc., 1996). The expressed proenzyme was first purified over a heparin agarose column, and then over a chelating zinc chloride column. The proenzyme was then activated by APMA for use in the assay. Further details on baculovirus expression systems may be found in, for example, Luckow et al., J. Virol., 67, 4566-79 (1993). See also, O'Reilly et al, Baculovirus Expression Vectors: A Laboratory Manual (W.H. Freeman and Co., New York, N.Y., 1992). See also, King et al., The Baculovirus Expression System: A Laboratory Guide (Chapman & Hall, London, England, 1992).
(§3) All MMPs were activated using 4-aminophenylmercuric acetate (“APMA”, Sigma Chemical, St. Louis, Mo.) or trypsin. MMP-9 also was activated using human recombinant MMP-3 (purified in Assignee's laboratory following standard cloning and purification techniques).
(§4) The following fluorogenic, methoxycoumarin-containing polypeptide substrate (I) was used in the MMP inhibition assays: MCA-ArgProLeuGlyLeuDpaAlaArgGluArgNH2 (I) “MCA” is 7-methoxycoumarin-4-yl acetyl. Substrate (I) was prepared Assignee's laboratory. In the absence of MMP inhibitory activity, the substrate is cleaved at the Gly-Leu peptide bond. This cleavage separates the highly fluorogenic peptide from the 2,4-dinitrophenyl quencher, thus resulting in increase of fluorescent intensity.
(§5) The stock solutions of the assayed compounds and salts were prepared in […] (DMSO). These stock solutions were diluted in Buffer A (100 mM Tris-HCl, 100 mM NaCl, 10 mM CaCl2, 0.05% polyoxyethylene 23 lauryl ether, pH 7.5) to obtain solutions with different compound concentrations, i.e., assay solutions with different concentrations of the assayed […] compound. The experiment controls contained the same amount of Buffer A/DMSO as the assayed sample, but contained none of the tested compound or salt.
The assays from which the Ki determinations were made were performed as follows. The assayed compound samples were incubated in separate wells of untreated white polystyrene plates (Nunc Nalgene International, Rochester, N.Y.), and analyzed on a Tecan SpectraFlour Plus plate reader. The excitation wavelength was 330 nm, and the emission wavelength—420 nm. All samples (assayed compounds and controls) were incubated in separate plate wells at room temperature for 1 hr in the presence of 4 μM of MMP substrate (I). In the absence of MMP inhibitory activity, substrate (I) was cleaved at the Gly-Leu bond resulting in an increase of relative fluorescence. Inhibition was observed as a reduced rate of this increase in relative fluorescence. […] This protocol is a modification of method by Knight et al., FEBS Lett., 296(3), 263-266 (1992). Apparent inhibitory constants were determined by non-linear regression of reaction velocity as a function of inhibitor and enzyme concentration using Morrison's equation, as described by Kuzmic, Anal. Biochem. 286, 45-50 (2000). […]

[2] = target: T2, Human recombinant MMP-14 (Homo sapiens, UniProt P50281)
T2 construct: The catalytic domain enzyme was expressed in E. coli inclusion bodies, solubilized in urea; made in house
Procedure: as §1, §2
The MMP-14 full length cDNA was provided by Dr. Gregory Goldberg of Washington University (St. Louis, Mo.). The catalytic domain enzyme was expressed in E. coli inclusion bodies, solubilized in urea, purified on a preparative […] reverse phase HPLC column, and then refolded in the presence of zinc acetate and purified for use.
as §3, §4, §5
(§6) The assays from which the Ki determinations were made were performed as follows. The assayed compound samples were incubated in separate wells of untreated white polystyrene plates (Nunc Nalgene International, Rochester, N.Y.), and analyzed on a Tecan SpectraFlour Plus plate reader. The excitation wavelength was 330 nm, and the emission wavelength—420 nm. All samples (assayed compounds and controls) were incubated in separate plate wells at room temperature for 1 hr in the presence of 4 μM of MMP substrate (I). In the absence of MMP inhibitory activity, substrate (I) was cleaved at the Gly-Leu bond resulting in an increase of relative fluorescence. Inhibition was observed as a reduced rate of this increase in relative fluorescence. […] This protocol is a modification of method by Knight et al., FEBS Lett., 296(3), 263-266 (1992). Apparent inhibitory constants were determined by non-linear regression of reaction velocity as a function of inhibitor and enzyme concentration using Morrison's equation, as described by Kuzmic, Anal. Biochem. 286, 45-50 (2000). Modifications were made in the non-linear regression method to allow a common control reaction rate and effective enzyme concentration to be shared between all dose-response relationships on a given assay plate. Since the substrate concentration was chosen to be at or below the Km, the apparent Ki's from this analysis were reported as Ki's without correction for the influence of substrate.
(§7) The above protocols were used to determine Ki constants for the compounds in Examples 2-35 above. All Ki values in Table 1 are given in nM units.

[3] = target: T3, Human recombinant MMP-9 (Homo sapiens, UniProt P14780)
T3 construct: made in house; host or cells: MMP-9-transfected HT1080 cells (spent media)
T3 sequence (P14780 107-707 limits assumed): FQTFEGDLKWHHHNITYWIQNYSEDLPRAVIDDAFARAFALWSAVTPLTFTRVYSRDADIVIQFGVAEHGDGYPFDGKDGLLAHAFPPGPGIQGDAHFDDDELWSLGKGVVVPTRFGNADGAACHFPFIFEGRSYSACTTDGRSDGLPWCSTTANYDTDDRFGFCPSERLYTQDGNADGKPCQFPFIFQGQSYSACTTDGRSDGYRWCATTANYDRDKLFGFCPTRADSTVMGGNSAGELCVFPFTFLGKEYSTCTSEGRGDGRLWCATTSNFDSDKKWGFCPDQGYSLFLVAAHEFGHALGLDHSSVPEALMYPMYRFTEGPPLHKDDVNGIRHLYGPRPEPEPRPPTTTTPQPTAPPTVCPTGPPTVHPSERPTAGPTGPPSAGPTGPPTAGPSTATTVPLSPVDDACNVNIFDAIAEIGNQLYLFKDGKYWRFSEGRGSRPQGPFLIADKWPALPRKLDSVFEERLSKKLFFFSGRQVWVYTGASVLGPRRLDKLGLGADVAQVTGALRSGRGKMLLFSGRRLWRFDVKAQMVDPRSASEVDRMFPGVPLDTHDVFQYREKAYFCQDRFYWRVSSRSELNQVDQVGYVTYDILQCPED
Procedure: as §1, §2
The MMP-9 proenzyme was purified by gelatin Sepharose chromatography from spent media of MMP-9-transfected HT1080 cells provided by Dr. Howard Welgus of Washington University (St. Louis, Mo.).
as §3, §4, §5, §6, §7

Structure (SMILES)	Ki ([1]; Table 1)	Ki ([2]; Table 1)	Ki ([3]; Table 1)	Ki ([1]; Table 2)	Ki ([2]; Table 2)	Ki ([3]; Table 2)
CC(F)(F)CCc1ccc(-c2ccc(S(=O)(=O)C3(C(=O)NO)CCN(C4CC4)CC3)cc2)cc1 [Example 59]	0.05 nM	390 nM	0.16 nM			
CC(F)(F)CCc1cnc(-c2ccc(S(=O)(=O)C3(C(=O)NO)CCOCC3)cc2)cn1 [Example 60]	0.212 nM	1880 nM	0.623 nM			
CCN1CCC(C(=O)NO)(S(=O)(=O)c2ccc(-c3ccc(CCC(C)(F)F)cc3)cc2)CC1 [Example 61]	0.02 nM	570 nM	0.26 nM			
O=C(NO)C1(S(=O)(=O)c2ccc(-c3cnc(CCC(F)(F)F)cn3)cc2)CCOCC1 [Example 62]	0.45 nM	2930 nM	1.83 nM			
COCCN1CCC(C(=O)NO)(S(=O)(=O)c2ccc(-c3ccc(CCC(C)(F)F)cc3)cc2)CC1 [Example 63]	0.01 nM	237 nM	0.08 nM			
CCN1CCC(C(=O)NO)(S(=O)(=O)c2ccc(-c3cnc(CCC(C)(F)F)cn3)cc2)CC1 [Example 64]	0.296 nM	> 10000 nM	0.677 nM			
COCCN1CCC(C(=O)NO)(S(=O)(=O)c2ccc(-c3cnc(CCC(C)(F)F)cn3)cc2)CC1 [Example 65]	0.27 nM	5970 nM	0.375 nM			
CC(F)(F)CCc1cnc(-c2ccc(S(=O)(=O)C3(C(=O)NO)CCN(C4CC4)CC3)cc2)cn1 [Example 66]	0.23 nM	4260 nM	0.31 nM			
COCCN1CCC(C(=O)NO)(S(=O)(=O)c2ccc(-c3ccc(CCC(C)(F)F)cn3)cc2)CC1 [Example 67]	0.07 nM	831 nM	0.19 nM			
O=C(NO)C1(S(=O)(=O)c2ccc(-c3ccc(OC(F)(F)C(F)F)cc3)cc2)CCOCC1 [Example 68]	0.0509 nM	235 nM	0.142 nM			
O=C(NO)C1(S(=O)(=O)c2ccc(-c3ccc(CCCC(F)(F)F)cn3)cc2)CCOCC1 [Example 69]	0.082 nM	708 nM	0.719 nM			
CCCCOc1cnc(-c2ccc(S(=O)(=O)C3(C(=O)NO)CCOCC3)cc2)cn1 [Example 73]				0.028 nM	159 nM	0.112 nM
O=C(NO)C1(S(=O)(=O)c2ccc(-c3ccc(OCCCC(F)(F)F)cc3)cc2)CCOCC1 [Example 74]				0.102 nM	585 nM	3.4 nM
CCCCCc1ccc(-c2ccc(S(=O)(=O)C3(C(=O)NO)CCOCC3)cc2)cc1 [Example 75]				0.299 nM	621 nM	1.01 nM
CC(=O)Nc1cnc(-c2ccc(S(=O)(=O)C3(C(=O)NO)CCOCC3)cc2)cn1 [Example 76]				31.7 nM	3480 nM	114 nM
CCN1CCC(C(=O)NO)(S(=O)(=O)c2ccc(-c3ccc(OCCCCO)cc3)cc2)CC1 [Example 118]				0.012 nM	741 nM	0.867 nM
CCCCOc1ccc(-c2ccc(S(=O)(=O)C3(C(=O)NO)CCN(CCOC)CC3)cc2)cc1 [Example 119]				0.018 nM	171 nM	0.15 nM

Structure (SMILES)	Ki ([1]; Table 1)	Ki ([2]; Table 1)	Ki ([3]; Table 1)	Ki ([1]; Table 2)	Ki ([2]; Table 2)	Ki ([3]; Table 2)
CCCCOc1ccc(-c2ccc(S(=O)(=O)C3(C(=O)NO)CCN(C4CC4)CC3)cc2)cc1 [Example 120]				0.082 nM	311 nM	0.336 nM
O=C(NO)C1(S(=O)(=O)c2ccc(-c3ncccn3)cc2)CCOCC1 [Example 121]				4.86 nM	1880 nM	57.9 nM
CCc1cnc(-c2ccc(S(=O)(=O)C3(C(=O)NO)CCOCC3)cc2)nc1 [Example 122]				1.56 nM	315 nM	4.84 nM
CCc1csc(Nc2ccc(-c3ccc(S(=O)(=O)C4(C(=O)NO)CCOCC4)cc3)cc2)n1 [Example 124]				3.3 nM	6230 nM	191 nM
O=C(NO)C1(S(=O)(=O)c2ccc(-c3ccc(-n4cncn4)cc3)cc2)CCOCC1 [Example 126]				0.048 nM	905 nM	1.92 nM
O=C(NO)C1(S(=O)(=O)c2ccc(-c3ccc(-n4ccnc4)cc3)cc2)CCOCC1 [Example 127]				0.03 nM	414 nM	1.89 nM
O=C(NO)C1(S(=O)(=O)c2ccc(-c3cnc(NCC4CC4)cn3)cc2)CCOCC1 [Example 128]				3.4 nM	> 2500 nM	4.36 nM
O=C(NO)C1(S(=O)(=O)c2ccc(-c3ccc(CCC4CCCCC4)cn3)cc2)CCOCC1 [Example 129]				0.383 nM	745 nM	8.56 nM
CC(C)(C)CCNc1cnc(-c2ccc(S(=O)(=O)C3(C(=O)NO)CCOCC3)cc2)cn1 [Example 130]				1.27 nM	> 1250 nM	12.8 nM
O=C(NO)C1(S(=O)(=O)c2ccc(-c3cnc(N4CCCCC4)cn3)cc2)CCOCC1 [Example 131]				2.04 nM	6240 nM	5.3 nM
O=C(NO)C1(S(=O)(=O)c2ccc(-c3cscc3-c3ccc(F)cc3)cc2)CCOCC1 [Example 132]				71 nM	3170 nM	298 nM
O=C(NO)C1(S(=O)(=O)c2ccc(-c3ccc(CCC(F)(C(F)(F)F)C(F)(F)F)cn3)cc2)CCOCC1 [Example 133]				2.06 nM	4150 nM	35.2 nM
O=C(NO)C1(S(=O)(=O)c2ccc(-c3noc(-c4ccc(F)cc4)n3)cc2)CCOCC1 [Example 134]				1.76 nM	67.1 nM	5.25 nM
CCN1CCC(C(=O)NO)(S(=O)(=O)c2ccc(-c3ccc(Oc4ccccc4)cc3)cc2)CC1 [Example 135]				0.742 nM	1010 nM	9.95 nM
CCN1CCC(C(=O)NO)(S(=O)(=O)c2ccc(-c3ccc(-c4ccncc4)cc3)cc2)CC1 [Example 136]				0.021 nM	308 nM	0.418 nM
O=C(NO)C1(S(=O)(=O)c2ccc(-c3ncc(CCC(F)(F)C(F)(F)F)cn3)cc2)CCOCC1 [Example 137]				0.17 nM	2870 nM	1.15 nM
